Measurements taken from US10822317B2, “Methods and compositions for wound healing” (QBiotics Limited, priority 2013, dated 2020).

Columns and labels:
[1] = test system: immortalised human keratinocyte cells (HaCaT); test: Scratch repopulation and closure with HaCaT; format: cell-based; conditions: 48 hours; for % of scratch wound area remaining open after treatment: ± standard error
Method: The ability of immortalised human keratinocyte cells (HaCaT) to migrate across a scratch wound made in a confluent monolayer following treatment with either Compound 1 or Compound 37 was determined by the following method.
Trypsinised HaCaT cells were seeded at a cell density of 7.4×10^4 cells/mL in 24-well BD Falcon flat-bottomed, tissue culture plates (VWR International, UK) in 1 mL Dulbecco's Modified Eagle Medium (DMEM), supplemented with L-glutamine (2 mM), antibiotics (100 U/mL penicillin G sodium, 100 μg/mL streptomycin sulphate and 0.25 μg/mL amphotericin B); and 10% foetal calf serum (all Invitrogen Ltd., UK) to give a cell density of 7.4×10^4 cells seeded in each well. The cells were then maintained at 37° C. in a 5% CO2/95% air atmosphere overnight. The following morning, the 10% foetal calf serum-containing DMEM was replaced with serum-free DMEM and the HaCaT cells were subsequently serum-starved in DMEM for 48 hr.
After 48 hr, the serum-free DMEM was removed and a single scratch ‘wound’ made with a sterile pipette across each cell layer. Following washing twice in 1 mL PBS, Compound 1- or Compound 37-containing medium (1 mL) was added to each well. This medium consisted of DMEM, supplemented with L-glutamine (2 mM), antibiotics (as above) and 1% foetal calf serum, in addition to Compound 1 or Compound 37 at final concentrations of 0, 0.001, 0.01, 0.1, 1.0, 10 or 100 μg/mL. There were three replicate wells per concentration for each compound.
The HaCaT cultures were maintained at 37° C. in a 5% CO2/95% air atmosphere and the repopulation of the denuded ‘wound’ areas monitored by Time-Lapse Confocal Microscopy (Leica TCS SP5 Confocal Microscope; Leica Microsystems UK Ltd., UK) at 100× magnification, with digital images captured at fixed positions every 20 min over a 48 h period. The digital image sequences were exported and prepared as .avi movie files, using LAS AF Software (Leica Microsystems). The rates of HaCaT wound closure in vitro were quantified using ImageJ Software (ImageJ 1.37v; http://rsb.info.nih.gov/ij/). The data was analysed by One Way Analysis of Variance with post-test Tukey analysis. Each experiment was performed on 3 separate occasions.

HaCaT cells [2] = test: HaCaT scratch repopulation with Mitomycin C (migration study); format: cell-based, human; conditions: with 1 μg/mL Mitomycin C; 0.001 to 1.0 μg/mL; p<0.05
HaCaT cells [3] = test: HaCaT proliferation (MTT); format: cell-based, human; design: dose or concentration left out as unconfirmed; conditions: 24, 48, 120 and 168 hr; p<0.01
Text: The proliferation experiment assessed the effects of the two compounds on HaCaT proliferation (as measured by MTT) in the culture system at 4 time periods (24, 48, 120 and 168 hr).

[4] = test system: TGF-β1-stimulated dermal fibroblasts; test: Differentiation of adult dermal fibroblasts into myofibroblasts (α-SMA expression); format: cell-based, human
Method: The effects of Compounds […] and 37 on dermal fibroblast differentiation to myofibroblasts was examined by the extent of α-SMA expression by TGF-βi-stimulated dermal fibroblasts.
Following trypsinization, fibroblasts were seeded in 8-well, Permanoxchamber slides (VWR International) in DMEM medium, containing antibiotics, 2 mM L-glutamine and 10% foetal calf serum (250 μL, all purchased from Invitrogen); at a cell density of 2.5×10^4 cells/well and maintained at 37° C. in 5% CO2/95% air for 48 h.
At 48 hr, fibroblasts were growth-arrested in serum-free DMEM for 48 hr and then replaced with serum-free DMEM (250 μL), containing Compounds 1 or 37 at concentrations of 0, 0.001, 0.01, 0.1, 1.0 and 10.0 μg/mL (3 wells/concentration/compound) and TGF-β1 (10 ng/ml, Peprotech). Fibroblasts were maintained at 37° C. in 5% CO2/95% air for 72 hr.
At 72 hr, chamber slide wells were washed with PBS (×1, 250 μL) and fixed in 4% paraformaldehyde (100 μL/well) for 10 min. The chamber slide wells were then washed again with PBS (×1, 250 μl), treated with 0.1% Triton X-100 in PBS (100 μL, Sigma) for 5 min and re-washed with PBS (×1, 250 μL). Wells were blocked with 1% BSA in PBS (250 μL, Sigma) for 1 h and washed (×3) in 0.1% BSA/PBS.
Wells were incubated with monoclonal mouse anti-human α-SMA, clone 1A4 (1:100, 150 ul, Sigma) at 4° C. overnight, washed (×6) in 0.1% BSA/PBS and incubated with Alexa Fluor 488 goat anti-mouse IgG antibody (1:1000, 250 μL, Invitrogen), at room temperature for 1 h, under darkness. Chamber slides were washed (×6) in 0.1% BSA/PBS and counterstained with Hoescht 33258 solution for 30 min under darkness (1:2000, 250 μL, Sigma). Chamber were subsequently removed for slides and treated with Fluorsave (Santa Cruz) for 10 min under darkness. Slides were viewed by fluorescence microscopy (Leica Microsystem), with digital images being capturedat ×200 magnification. Digital images were processed using HC Image J Software.

`CC=C(C)C(=O)OC1C(C)C2(O)C(C(O)C3(CO)OC3C3(O)C(=O)C(C)=CC32)C2C(C)(C)C12OC(=O)C(C)CC` (centres unmarked) [Compound 37, 12-tigloyl-13-(2-methylbutanoyl)-5,6-epoxy-4,5,9,12,13,20-hexahydroxy-1-tigliaen-3-one] was tested, and the “% of scratch wound area remaining open after treatment” value ([1]; 0.001 μg/ml) was 4.3 ± 4.1%, the “% of scratch wound area remaining open after treatment” value ([1]; 0.01 μg/ml) was 0.9 ± 1.5% and the “% of scratch wound area remaining open after treatment” value ([1]; 0.1 μg/ml) was 2.2 ± 3.4%. For the same compound, the “% of scratch wound area remaining open after treatment” value ([1]; 1.0 μg/ml) was 30.0 ± 5.3%, the “% of scratch wound area remaining open after treatment” value ([1]; 10 μg/ml) was 37.1 ± 7.1% and the “rate of scratch closure compared to the control treatment” value ([1]; 0.001, 0.01, 0.1 and 1.0 μg/ml, p<0.01) was “increased”. The “scratch repopulation and closure (migration study)” value (HaCaT cells [2]) was “enhanced”, the “proliferation of HaCaT cells (MTT) vs control with no compound” value (HaCaT cells [3]) was “increasing proliferation” and the “differentiation of TGF-β1-treated adult dermal fibroblasts into myofibroblasts” value ([4]; 0.001 to 10.0 μg/mL, 72 hr) was “affected differentiation into myofibroblasts in a concentration-dependent manner”. For the same compound, the myofibroblast morphology ([4]; 0.1 to 1.0 μg/mL) was “subtle alterations in myofibroblast morphology” and the “α-SMA stress fibre formation and polygonal morphology development” value ([4]; TGF-β1 10 ng/ml, 72 hr, 10 μg/mL) was “disruptive effect on α-SMA stress fibre formation and polygonal morphology development”.
